Assay results taken from the supplement of paper PMC4380931.

Tests used:
K2 = assay: apoptotic fraction of cells (caspase-3 NucView488 positive); higher = more apoptosis
Procedure: (§1)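 BRAF V600E/D melanoma cell lines were seeded in 96-well plates, treated in 4 replicates with seven doses (3.16 nM to 3.16 uM) of RAF/MEK inhibitors for 24, 48 or 72 h, and stained with Hoechst 33342 (nuclei) and DEVD-NucView488 caspase-3 substrate. Plates were imaged on an Operetta. Relative viability is the cell count normalised to a DMSO-treated control; apoptosis fraction is the fraction of NucView488-positive nuclei.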

C32 [1] = assay: as above
Procedure: as §1

COLO858 [2] = assay: as above
Procedure: as §1

SKMEL28 = assay: relative viability (cell count relative to DMSO-treated control) (fraction of DMSO control); higher = more viable cells / less drug effect
Procedure: as §1

WM115 = assay: as above
Procedure: as §1

C32 [3] = assay: as above
Procedure: as §1

COLO858 [4] = assay: as above
Procedure: as §1

CCCS(=O)(=O)Nc1ccc(F)c(C(=O)c2c[nH]c3ncc(Cl)cc23)c1F [PLX4720]
Settings	apoptotic fraction of cells, C32 [1]	apoptotic fraction of cells, COLO858 [2]	apoptotic fraction of cells, K2	relative viability, C32 [3]	relative viability, COLO858 [4]	relative viability, SKMEL28	relative viability, WM115
24 h, 0.00316 µM	0.0873	0.0469	0.00502	0.98	1.03	–	1.14
24 h, 0.01 µM	0.121	0.0452	0.00388	1	1.15	–	1.39
24 h, 0.0316 µM	0.119	0.0424	0.00353	1.04	1.21	–	1.49
24 h, 0.1 µM	0.153	0.0482	0.00321	1.01	1.17	–	1.44
24 h, 0.316 µM	0.174	0.0562	0.00817	0.942	1.02	–	1.58
24 h, 1 µM	0.245	0.108	0.0503	0.824	0.946	–	1.02
24 h, 3.16 µM	0.29	0.154	0.153	0.693	0.808	–	1.14
48 h, 0.00316 µM	0.0967	0.0522	0.00236	1.11	0.968	0.824	1.25
48 h, 0.01 µM	0.159	0.0523	0.00224	0.905	1.07	1.43	1.37
48 h, 0.0316 µM	0.158	0.0462	0.00201	0.929	1.06	1.48	1.32
48 h, 0.1 µM	0.105	0.0498	0.00525	1.01	0.893	1.42	1.83
48 h, 0.316 µM	0.143	0.0785	0.0166	0.857	0.538	1.12	1.67
48 h, 1 µM	0.465	0.184	0.0858	0.454	0.407	0.941	1.24
48 h, 3.16 µM	0.784	0.323	0.173	0.155	0.306	0.61	0.792
72 h, 0.00316 µM	0.0846	0.0883	–	0.957	1.13	0.973	1.01
72 h, 0.01 µM	0.0849	0.0826	–	1.08	1.2	0.881	1.03
72 h, 0.0316 µM	0.0684	0.0717	–	1.1	1.19	0.968	1.03
72 h, 0.1 µM	0.0354	0.053	–	0.937	0.893	0.866	1.06
72 h, 0.316 µM	0.215	0.0842	–	0.516	0.569	0.598	0.8596
72 h, 1 µM	0.619	0.183	–	0.182	0.417	0.458	0.594
72 h, 3.16 µM	0.813	0.374	–	0.0669	0.273	0.389	0.302

Cc1ccc(NC(=O)c2cccc(C(C)(C)C#N)c2)cc1Nc1ccc2ncn(C)c(=O)c2c1 [AZ628]
Settings	apoptotic fraction of cells, C32 [1]	apoptotic fraction of cells, COLO858 [2]	apoptotic fraction of cells, K2	relative viability, C32 [3]	relative viability, COLO858 [4]	relative viability, SKMEL28	relative viability, WM115
24 h, 0.00316 µM	0.0886	0.0485	0.00396	1.09	0.923	–	1.19
24 h, 0.01 µM	0.128	0.0403	0.003	1.12	1.12	–	1.47
24 h, 0.0316 µM	0.177	0.0435	0.00276	1.05	1.16	–	1.51
24 h, 0.1 µM	0.226	0.0728	0.00598	1.02	0.982	–	1.53
24 h, 0.316 µM	0.28	0.105	0.0287	0.87	0.938	–	1.37
24 h, 1 µM	0.338	0.136	0.117	0.757	0.902	–	0.87
24 h, 3.16 µM	0.24	0.171	0.135	0.877	0.816	–	0.946
48 h, 0.00316 µM	0.0865	0.0518	0.00258	1.17	0.965	0.879	1.06
48 h, 0.01 µM	0.103	0.0435	0.00301	1.14	1.08	1.4	1.19
48 h, 0.0316 µM	0.0851	0.0477	0.00475	1.01	0.778	1.44	1.47
48 h, 0.1 µM	0.213	0.12	0.0219	0.793	0.48	1.16	1.31
48 h, 0.316 µM	0.509	0.221	0.0649	0.428	0.368	0.947	1.11
48 h, 1 µM	0.847	0.296	0.254	0.109	0.319	0.896	0.658
48 h, 3.16 µM	0.9051	0.436	0.358	0.0749	0.248	0.614	0.424
72 h, 0.00316 µM	0.0829	0.0847	–	0.992	1.05	1.13	1.03
72 h, 0.01 µM	0.0581	0.0691	–	1.1	1.13	1.01	1.04
72 h, 0.0316 µM	0.0379	0.0679	–	0.947	0.716	0.791	0.801
72 h, 0.1 µM	0.301	0.109	–	0.45	0.475	0.526	0.594
72 h, 0.316 µM	0.676	0.225	–	0.163	0.392	0.507	0.281
72 h, 1 µM	0.886	0.381	–	0.059	0.307	0.489	0.172
72 h, 3.16 µM	0.941	0.534	–	0.0269	0.213	0.442	0.0874
